In one test the target is PDE5A1 (Homo sapiens, UniProt O76074).
Test [1] has as its system arterioles and precapillary arteries. The settings on record: topically administered; increasing blood flow and tissue perfusion; cited from earlier work.

The values below come from patent US8211479B2, “Combinations of vasoactive substances with estrogens and their use in the treatment of female sexual dysfunctions” (Indena S.p.A., priority 2007, dated 2012).

On to `COc1ccc(-c2oc3c(CC=C(C)C)c(OCCO)cc(O)c3c(=O)c2OCCO)cc1` [Compound 1, 3,7-O-di-(2-hydroxyethyl)icaritin], for which the “inhibition of phosphodiesterase cGMP (in words)” value at PDE5A1 was “powerful inhibitors”.

As to Visnadin, the “vasokinetic action on arterioles and precapillary arteries (in words)” value in test [1] is given as “marked vasokinetic action”.

Turning to `COc1ccc(-c2oc3c(CC=C(C)C)c(OCCO)cc(O)c3c(=O)c2O[C@@H]2O[C@@H](C)[C@H](O)[C@@H](O)[C@H]2O)cc1` [Compound 2, 7-O-hydroxyethyl-icariside II], the “inhibition of phosphodiesterase cGMP (in words)” value against PDE5A1 is listed as “powerful inhibitors”.
